Laboratory results from the kinase profiling compilation of Christmann-Franck et al. (2016).

Key:
Experiment in all cases: KINOMEscan competition binding
Conditions in all cases: compound 10.0 µM
RPS6KA5 KD2 (human) = RPS6KA5 KD2 (human) (UniProt O75582)
BMPR1A (human) = BMPR1A (human) (UniProt P36894)
[1] = test system: KIT (human), P10721 [V559D/T670I]
ULK2 (human) = ULK2 (human) (UniProt Q8IYT8)
CHEK1 (human) = CHEK1 (human) (UniProt O14757)
PIK3CB (human) = PIK3CB (human) (UniProt P42338)
ERBB4 (human) = ERBB4 (human) (UniProt Q15303)
Sequence of ERBB4 (human) (Q15303 whole entry, looked up): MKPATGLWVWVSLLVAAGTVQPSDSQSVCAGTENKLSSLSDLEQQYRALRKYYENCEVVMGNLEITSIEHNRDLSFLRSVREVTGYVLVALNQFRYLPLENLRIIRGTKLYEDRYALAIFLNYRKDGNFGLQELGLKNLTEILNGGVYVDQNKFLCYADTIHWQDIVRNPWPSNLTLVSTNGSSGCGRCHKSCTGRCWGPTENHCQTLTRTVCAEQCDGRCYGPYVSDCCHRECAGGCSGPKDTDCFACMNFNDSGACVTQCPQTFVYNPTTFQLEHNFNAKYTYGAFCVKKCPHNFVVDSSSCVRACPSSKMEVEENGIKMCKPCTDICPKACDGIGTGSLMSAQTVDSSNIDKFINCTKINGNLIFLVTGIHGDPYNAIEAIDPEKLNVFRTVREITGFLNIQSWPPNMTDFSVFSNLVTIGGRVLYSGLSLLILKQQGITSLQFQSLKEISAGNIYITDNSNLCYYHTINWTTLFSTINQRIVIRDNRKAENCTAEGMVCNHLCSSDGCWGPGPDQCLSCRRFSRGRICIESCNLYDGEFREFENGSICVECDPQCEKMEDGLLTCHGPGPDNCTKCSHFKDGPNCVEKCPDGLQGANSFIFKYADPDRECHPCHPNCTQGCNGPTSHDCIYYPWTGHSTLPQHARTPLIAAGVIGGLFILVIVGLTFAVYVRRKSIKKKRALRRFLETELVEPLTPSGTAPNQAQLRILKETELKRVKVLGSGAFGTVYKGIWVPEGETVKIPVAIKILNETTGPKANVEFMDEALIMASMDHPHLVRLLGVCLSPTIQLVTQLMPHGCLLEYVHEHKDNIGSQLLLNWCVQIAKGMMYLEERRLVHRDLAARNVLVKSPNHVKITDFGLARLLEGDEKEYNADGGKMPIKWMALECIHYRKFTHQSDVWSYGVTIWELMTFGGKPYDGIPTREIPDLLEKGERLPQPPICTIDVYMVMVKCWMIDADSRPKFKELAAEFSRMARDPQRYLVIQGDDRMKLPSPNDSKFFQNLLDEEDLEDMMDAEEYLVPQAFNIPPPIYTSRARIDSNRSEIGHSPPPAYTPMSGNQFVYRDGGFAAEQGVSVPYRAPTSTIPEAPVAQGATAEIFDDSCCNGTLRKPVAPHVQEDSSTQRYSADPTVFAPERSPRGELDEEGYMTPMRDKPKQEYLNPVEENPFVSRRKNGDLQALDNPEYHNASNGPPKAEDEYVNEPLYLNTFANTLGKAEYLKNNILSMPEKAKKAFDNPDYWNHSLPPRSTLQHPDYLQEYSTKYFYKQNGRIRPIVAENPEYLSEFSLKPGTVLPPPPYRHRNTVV

DCLK3 (human) = DCLK3 (human) (UniProt Q9C098)
[2] = target: JAK1 JH1 catalytic (human) (UniProt P23458)
DDR1 (human) = DDR1 (human) (UniProt Q08345)
RIPK1 (human) = RIPK1 (human) (UniProt Q13546)
CAMKK1 (human) = CAMKK1 (human) (UniProt Q8N5S9)
PHKG2 (human) = PHKG2 (human) (UniProt P15735)
MYO3B (human) = MYO3B (human) (UniProt Q8WXR4)
Sequence of MYO3B (human) (Q8WXR4 whole entry, looked up): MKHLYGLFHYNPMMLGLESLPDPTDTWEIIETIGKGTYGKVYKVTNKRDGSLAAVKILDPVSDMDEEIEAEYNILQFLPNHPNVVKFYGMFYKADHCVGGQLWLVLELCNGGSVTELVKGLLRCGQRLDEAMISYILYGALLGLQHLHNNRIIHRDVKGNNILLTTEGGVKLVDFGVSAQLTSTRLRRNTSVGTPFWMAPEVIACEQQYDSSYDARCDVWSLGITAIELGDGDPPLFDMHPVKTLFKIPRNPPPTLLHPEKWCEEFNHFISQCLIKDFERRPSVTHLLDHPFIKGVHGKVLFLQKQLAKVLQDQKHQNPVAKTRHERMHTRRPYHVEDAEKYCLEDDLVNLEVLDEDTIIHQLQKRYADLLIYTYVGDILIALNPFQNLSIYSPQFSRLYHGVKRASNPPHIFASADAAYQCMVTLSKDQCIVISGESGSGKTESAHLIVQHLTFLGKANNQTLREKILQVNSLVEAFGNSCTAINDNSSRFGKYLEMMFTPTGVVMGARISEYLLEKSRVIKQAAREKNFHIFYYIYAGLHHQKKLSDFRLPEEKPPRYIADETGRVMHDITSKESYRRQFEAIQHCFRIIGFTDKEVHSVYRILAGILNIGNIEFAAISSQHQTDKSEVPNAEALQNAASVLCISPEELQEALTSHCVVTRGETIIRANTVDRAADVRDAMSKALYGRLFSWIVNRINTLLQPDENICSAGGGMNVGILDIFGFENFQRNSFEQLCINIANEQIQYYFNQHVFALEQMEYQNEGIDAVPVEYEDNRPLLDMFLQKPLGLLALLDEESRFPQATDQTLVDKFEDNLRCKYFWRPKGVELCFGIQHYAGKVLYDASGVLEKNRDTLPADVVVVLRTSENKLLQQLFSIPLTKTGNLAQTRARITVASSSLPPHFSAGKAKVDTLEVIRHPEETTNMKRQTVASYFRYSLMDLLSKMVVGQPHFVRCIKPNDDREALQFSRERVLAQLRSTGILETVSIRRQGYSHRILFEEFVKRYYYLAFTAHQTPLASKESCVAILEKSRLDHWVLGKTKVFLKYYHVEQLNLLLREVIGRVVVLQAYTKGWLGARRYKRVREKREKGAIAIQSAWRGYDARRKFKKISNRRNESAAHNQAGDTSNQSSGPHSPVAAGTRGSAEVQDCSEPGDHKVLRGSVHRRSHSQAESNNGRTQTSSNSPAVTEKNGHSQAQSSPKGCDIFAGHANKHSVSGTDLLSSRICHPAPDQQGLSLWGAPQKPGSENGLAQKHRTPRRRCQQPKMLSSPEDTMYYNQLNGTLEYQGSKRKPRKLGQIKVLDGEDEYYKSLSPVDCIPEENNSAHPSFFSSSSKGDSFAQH

MAP3K4 (human) = MAP3K4 (human) (UniProt Q9Y6R4)
CDK14 (human) = CDK14 (human) (UniProt O94921)
CLK2 (human) = CLK2 (human) (UniProt P49760)
STK3 (human) = STK3 (human) (UniProt Q13188)
CAMK2B (human) = CAMK2B (human) (UniProt Q13554)
RIOK3 (human) = RIOK3 (human) (UniProt O14730)
MLTK (human) = MLTK (human) (UniProt Q9NYL2)
Sequence of MLTK (human) (Q9NYL2 whole entry, looked up): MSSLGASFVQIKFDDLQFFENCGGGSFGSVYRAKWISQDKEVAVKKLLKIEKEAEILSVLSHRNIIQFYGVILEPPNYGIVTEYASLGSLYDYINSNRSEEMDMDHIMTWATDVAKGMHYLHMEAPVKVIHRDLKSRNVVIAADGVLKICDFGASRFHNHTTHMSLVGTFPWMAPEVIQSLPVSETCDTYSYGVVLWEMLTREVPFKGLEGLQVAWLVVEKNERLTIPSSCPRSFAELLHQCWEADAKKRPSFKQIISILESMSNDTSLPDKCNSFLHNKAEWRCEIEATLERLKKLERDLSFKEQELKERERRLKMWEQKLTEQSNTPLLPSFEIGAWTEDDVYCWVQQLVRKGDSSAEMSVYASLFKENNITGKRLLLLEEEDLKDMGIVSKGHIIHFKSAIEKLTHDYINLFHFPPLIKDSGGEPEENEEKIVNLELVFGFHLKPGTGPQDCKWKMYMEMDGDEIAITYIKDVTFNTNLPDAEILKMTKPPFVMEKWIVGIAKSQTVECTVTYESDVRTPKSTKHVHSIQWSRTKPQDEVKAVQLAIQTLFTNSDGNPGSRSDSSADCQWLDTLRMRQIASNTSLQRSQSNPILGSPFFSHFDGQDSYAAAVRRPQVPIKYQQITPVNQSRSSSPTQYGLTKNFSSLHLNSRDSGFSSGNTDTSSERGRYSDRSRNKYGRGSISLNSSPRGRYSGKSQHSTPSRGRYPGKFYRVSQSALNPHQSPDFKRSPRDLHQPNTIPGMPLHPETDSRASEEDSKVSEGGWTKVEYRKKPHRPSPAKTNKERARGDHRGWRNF

SYK (human) = SYK (human) (UniProt P43405)
CSNK2A1 (human) = CSNK2A1 (human) (UniProt P68400)
[3] = test system: ABL1 (human), P00519 [Y253F]
ITK (human) = ITK (human) (UniProt Q08881)
IKBKB (human) = IKBKB (human) (UniProt O14920)
CLK1 (human) = CLK1 (human) (UniProt P49759)
CDK11B (human) = CDK11B (human) (UniProt P21127)
Sequence of CDK11B (human) (P21127 whole entry, looked up): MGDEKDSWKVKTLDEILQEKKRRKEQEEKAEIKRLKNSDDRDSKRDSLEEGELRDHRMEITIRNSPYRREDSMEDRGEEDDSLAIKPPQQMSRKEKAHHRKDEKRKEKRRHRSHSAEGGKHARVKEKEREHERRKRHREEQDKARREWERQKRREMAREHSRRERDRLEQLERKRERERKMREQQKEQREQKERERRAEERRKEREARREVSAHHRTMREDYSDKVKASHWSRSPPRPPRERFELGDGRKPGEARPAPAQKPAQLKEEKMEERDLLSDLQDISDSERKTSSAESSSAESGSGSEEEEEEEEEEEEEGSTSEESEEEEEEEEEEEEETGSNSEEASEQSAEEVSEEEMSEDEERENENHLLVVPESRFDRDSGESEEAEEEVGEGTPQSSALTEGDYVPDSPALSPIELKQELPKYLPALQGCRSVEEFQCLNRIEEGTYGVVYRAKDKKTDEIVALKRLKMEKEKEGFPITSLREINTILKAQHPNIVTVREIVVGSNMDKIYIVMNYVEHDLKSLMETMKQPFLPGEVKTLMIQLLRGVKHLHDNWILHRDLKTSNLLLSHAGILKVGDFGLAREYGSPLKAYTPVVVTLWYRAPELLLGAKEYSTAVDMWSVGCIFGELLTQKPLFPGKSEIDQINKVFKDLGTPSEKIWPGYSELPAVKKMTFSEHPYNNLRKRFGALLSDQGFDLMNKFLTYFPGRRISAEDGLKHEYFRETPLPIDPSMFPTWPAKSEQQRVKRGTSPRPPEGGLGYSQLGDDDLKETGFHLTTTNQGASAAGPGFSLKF

CSNK2A2 (human) = CSNK2A2 (human) (UniProt P19784)
TYRO3 (human) = TYRO3 (human) (UniProt Q06418)
TLK1 (human) = TLK1 (human) (UniProt Q9UKI8)
ANKK1 (human) = ANKK1 (human) (UniProt Q8NFD2)
CDK7 (human) = CDK7 (human) (UniProt P50613)
Sequence of CDK7 (human) (P50613 whole entry, looked up): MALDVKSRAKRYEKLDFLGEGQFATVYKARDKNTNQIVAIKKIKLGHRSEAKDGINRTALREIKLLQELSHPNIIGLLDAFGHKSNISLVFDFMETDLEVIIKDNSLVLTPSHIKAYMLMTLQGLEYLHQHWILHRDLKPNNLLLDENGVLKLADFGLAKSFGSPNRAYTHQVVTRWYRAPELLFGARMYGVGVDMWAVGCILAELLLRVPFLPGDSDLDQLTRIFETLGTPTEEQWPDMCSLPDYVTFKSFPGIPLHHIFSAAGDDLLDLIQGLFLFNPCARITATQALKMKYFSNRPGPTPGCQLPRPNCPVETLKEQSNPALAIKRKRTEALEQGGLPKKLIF

FYN (human) = FYN (human) (UniProt P06241)
LYN (human) = LYN (human) (UniProt P07948)
Sequence of LYN (human) (P07948 whole entry, looked up): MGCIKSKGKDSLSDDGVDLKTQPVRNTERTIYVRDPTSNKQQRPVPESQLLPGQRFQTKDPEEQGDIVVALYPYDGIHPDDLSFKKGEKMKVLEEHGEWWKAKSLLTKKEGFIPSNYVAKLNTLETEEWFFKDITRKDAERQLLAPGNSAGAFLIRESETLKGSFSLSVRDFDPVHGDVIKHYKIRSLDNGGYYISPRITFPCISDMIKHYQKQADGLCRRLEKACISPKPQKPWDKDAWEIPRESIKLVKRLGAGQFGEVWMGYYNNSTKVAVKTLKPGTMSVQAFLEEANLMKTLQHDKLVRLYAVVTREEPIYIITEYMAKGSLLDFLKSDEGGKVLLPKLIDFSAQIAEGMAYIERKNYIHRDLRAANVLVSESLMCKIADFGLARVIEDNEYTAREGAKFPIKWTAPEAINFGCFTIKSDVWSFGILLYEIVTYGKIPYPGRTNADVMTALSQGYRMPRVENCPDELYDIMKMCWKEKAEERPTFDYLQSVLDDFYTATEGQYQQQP

LATS2 (human) = LATS2 (human) (UniProt Q9NRM7)
STK10 (human) = STK10 (human) (UniProt O94804)
[4] = test system: EGFR (human), P00533 [A750P; 747-749 del]
FES (human) = FES (human) (UniProt P07332)
TIE1 (human) = TIE1 (human) (UniProt P35590)
[5] = test system: FLT3 (human), P36888 [N841I]
FLT3 (human) = FLT3 (human) (UniProt P36888)

Row | Compound | kinase still bound, per cent of control [1] [%] | kinase still bound, per cent of control (ERBB4 (human)) [%] | kinase still bound, per cent of control (DDR1 (human)) [%] | kinase still bound, per cent of control (RIPK1 (human)) [%] | kinase still bound, per cent of control (MYO3B (human)) [%] | kinase still bound, per cent of control (CDK14 (human)) [%] | kinase still bound, per cent of control (MLTK (human)) [%] | kinase still bound, per cent of control (SYK (human)) [%] | kinase still bound, per cent of control [3] [%] | kinase still bound, per cent of control (IKBKB (human)) [%] | kinase still bound, per cent of control (CDK11B (human)) [%] | kinase still bound, per cent of control (ANKK1 (human)) [%] | kinase still bound, per cent of control (CDK7 (human)) [%] | kinase still bound, per cent of control (FYN (human)) [%] | kinase still bound, per cent of control (LYN (human)) [%] | kinase still bound, per cent of control (LATS2 (human)) [%] | kinase still bound, per cent of control (STK10 (human)) [%] | kinase still bound, per cent of control [4] [%] | further results
1 | COc1cc(N2CCC(N3CCN(C)CC3)CC2)ccc1Nc1ncc(Cl)c(Nc2ccccc2S(=O)(=O)C(C)C)n1 | 0.95 | 1.2 | 0.05 | 18 | 0.6 | 40 | 40 | 3.4 | 4.2 | 40 | 40 | 40 | 0.15 | 5.6 | 5 | 17 | 0 | 0 | kinase still bound, per cent of control (RPS6KA5 KD2 (human)): 40%; kinase still bound, per cent of control (BMPR1A (human)): 0%; kinase still bound, per cent of control (ULK2 (human)): 1.1%; kinase still bound, per cent of control (CHEK1 (human)): 0%; kinase still bound, per cent of control (PIK3CB (human)): 40%; kinase still bound, per cent of control (DCLK3 (human)): 0%; kinase still bound, per cent of control [2]: 4.7%; kinase still bound, per cent of control (CAMKK1 (human)): 0.2%; kinase still bound, per cent of control (PHKG2 (human)): 0%; kinase still bound, per cent of control (MAP3K4 (human)): 13%; kinase still bound, per cent of control (CLK2 (human)): 0%; kinase still bound, per cent of control (STK3 (human)): 0.25%; kinase still bound, per cent of control (CAMK2B (human)): 5.8%; kinase still bound, per cent of control (RIOK3 (human)): 3.2%; kinase still bound, per cent of control (CSNK2A1 (human)): 27%; kinase still bound, per cent of control (ITK (human)): 0.1%; kinase still bound, per cent of control (CLK1 (human)): 0.4%; kinase still bound, per cent of control (CSNK2A2 (human)): 40%; kinase still bound, per cent of control (TYRO3 (human)): 24%; kinase still bound, per cent of control (TLK1 (human)): 40%
2 | CCN1CCN(Cc2ccc(NC(=O)c3ccc(C)c(Oc4ccnc5[nH]ccc45)c3)cc2C(F)(F)F)CC1 | 0.05 | 28 | 0.05 | 0 | 4.8 | 0.4 | 0.35 | 6.2 | 1.1 | 24 | 0.35 | 23 | 2.4 | 1.6 | 0.75 | 13 | 0 | 1.5 | kinase still bound, per cent of control (FES (human)): 2.2%; kinase still bound, per cent of control (TIE1 (human)): 0.95%; kinase still bound, per cent of control [5]: 0%; kinase still bound, per cent of control (FLT3 (human)): 0.15%
